Experimental data reported in patent publication US9938262B2, “Benzamides” (Merck Patent GmbH, priority 2011, dated 2018).

These molecules were tested against T1, FSHR (Homo sapiens, UniProt P23945) (assay: EC50 of cyclic AMP production in CHO FSHR cells + EC20 FSH (Assay A)). Conditions: 1 h; 5 μM; effect relative to maximum response of the FSH standard; Table 1.
T1 construct: expressed in transfected cells; host or cells: CHO (Cho-FSHR-LUC-1-1-43)
Type: cell-based
Procedure: Example 10: EC50 of Cyclic AMP Production in CHO FSHR Cells+EC20 FSH (Assay A)
2500 Cho-FSHR-LUC-1-1-43 cells were plated per well in 5 μl of phenol red free DMEM/F12+1% FBS. Cells were plated in 384 well, solid white low volume plates (Greiner 784075) by Multidrop. Cells were assayed by adding 100 μl of 2×EC20 FSH/IBMX in DMEM/F12+0.1% BSA) by Multidrop to 2 μl of test compound stamped in 384 well plates (compounds are diluted 1:50). The final FSH concentration was […], and the final IBMX concentration was 200 μM. The compound plate map was as follows: Column 1: 2 μl of DMSO; Column 2: 2 μl of DMSO; Columns 3-12 and 13-24: 2 μl of test compound, diluted 1:4 in 100% DMSO, or 2 μl of FSH, diluted 1:4 in DMEM/F12+0.1% BSA. The starting concentration for FSH was 50 nM (final concentration was 0.5 nM). […] 5 μl of compound+EC20 FSH mixture were transferred to cell plates (1:2 dilution into 5 μl of cell media) The plates were incubated at 37° C. for 1 h. 10 μl of mixed HTRF (CisBio #62AM4PEC) reagents were added per well and incubated at room temperature for 1 h. The plates were read on Envision using the cAMP HTRF—low volume 384 well protocol. The readout was the calculated fluorescence ratio (665 nm/620 nm). Values given in percent (%) indicate the percental effect (response) at a certain concentration of agonist relative to the maximum response of the FSH standard.

T1 sequence (P23945 18-695): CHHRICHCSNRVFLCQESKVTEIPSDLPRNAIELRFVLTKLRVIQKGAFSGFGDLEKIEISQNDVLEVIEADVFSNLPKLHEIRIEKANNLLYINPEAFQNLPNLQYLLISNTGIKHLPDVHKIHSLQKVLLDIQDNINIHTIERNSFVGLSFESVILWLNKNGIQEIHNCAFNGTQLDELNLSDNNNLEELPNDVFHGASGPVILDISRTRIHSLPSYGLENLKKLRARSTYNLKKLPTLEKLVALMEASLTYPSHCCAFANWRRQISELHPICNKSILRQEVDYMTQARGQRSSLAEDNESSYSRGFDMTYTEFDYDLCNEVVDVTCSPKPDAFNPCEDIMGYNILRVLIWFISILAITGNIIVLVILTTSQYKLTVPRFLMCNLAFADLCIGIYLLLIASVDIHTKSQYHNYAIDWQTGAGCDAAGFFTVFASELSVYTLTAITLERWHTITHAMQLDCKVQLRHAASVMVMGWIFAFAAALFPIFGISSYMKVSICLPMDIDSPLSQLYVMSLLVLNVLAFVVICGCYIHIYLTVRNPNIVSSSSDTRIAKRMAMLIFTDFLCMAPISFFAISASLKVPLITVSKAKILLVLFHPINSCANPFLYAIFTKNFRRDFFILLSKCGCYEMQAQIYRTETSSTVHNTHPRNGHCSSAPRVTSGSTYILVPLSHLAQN
T1 sequence (P01215 25-116 partner): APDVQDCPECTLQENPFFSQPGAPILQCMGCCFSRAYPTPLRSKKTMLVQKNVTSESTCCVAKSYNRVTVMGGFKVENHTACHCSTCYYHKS
T1 sequence (P01225 19-129 partner): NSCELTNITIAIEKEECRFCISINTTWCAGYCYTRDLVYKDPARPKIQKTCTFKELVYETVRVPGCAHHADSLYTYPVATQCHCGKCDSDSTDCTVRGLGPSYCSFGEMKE

activation at 5 µM | Structure (SMILES)
16% | Cc1ccccc1N1CCN(c2ccc(C(=O)NCCCN3CCCC3=O)cc2NC(=O)c2cnoc2C(C)C)CC1 [Compound 145]
32% | Cc1ccc(C(=O)Nc2cc(C(=O)NCc3cccc(Br)c3)ccc2N2CCN(c3ccccc3C)CC2)o1 [Compound 170]
43% | Cc1ccccc1N1CCN(c2ccc(C(=O)NCCCN3CCCC3=O)cc2NS(=O)(=O)Cc2cccc3cccnc23)CC1 [Compound 239]
39% | Cc1ccccc1N1CCN(c2ccc(C(=O)NCCc3c[nH]c4ccccc34)cc2NC(=O)c2ccco2)CC1 [Compound 10, Furan-2-carboxylic acid [5-[2-(1H-indol-3-yl)-ethylcarbamoyl]-2-(4-o-tolyl-piperazin-1-yl)-phenyl]-amide]
72% | Cc1ccccc1N1CCN(c2ccc(C(=O)NCCN(C)C(=O)OC(C)(C)C)cc2NC(=O)c2ccco2)CC1 [Compound 64, {2-[3-[(Furan-2-carbonyl)-amino]-4-(4-o-tolyl-piperazin-1-yl)-benzoylamino]-ethyl}-methyl-carbamic acid tert-butyl ester]

Same assay, conditions: 1 h; 5 μM; effect relative to maximum response of the FSH standard; Table 2

activation at 5 µM | Structure (SMILES)
40% | O=C(NCCCN1CCCC1=O)c1ccc(N2CCN(c3ncncn3)CC2)c(NC(=O)c2coc(C3CC3)n2)c1 [Compound 554]

Same assay, conditions: CHO FSHR cells + EC20 FSH; Table 1; read-out: Assay A EC50 of cyclic AMP production

EC50 | Structure (SMILES)
100 to 1000 nM | C=CC(=O)NCCCNC(=O)c1ccc(N2CCN(c3ccccc3C)CC2)c(NC(=O)c2ccco2)c1 [Compound 212]
100 to 1000 nM | Cc1ccccc1N1CCN(c2ccc(C(=O)NC3CCN(C(=O)OC(C)(C)C)CC3)cc2NC(=O)c2ccco2)CC1 [Compound 49, 4-[3-[(Furan-2-carbonyl)-amino]-4-(4-o-tolyl-piperazin-1-yl)-benzoylamino]-piperidine-1-carboxylic acid tert-butyl ester]
1000 to 10000 nM | Cc1ccccc1N1CCN(c2ccc(C(=O)NCCCN3CCCC3=O)cc2NC(=O)c2cocn2)CC1 [Compound 103]
1000 to 10000 nM | CCOc1cc(CCNC(=O)c2ccc(N3CCN(c4ccccc4C)CC3)c(NC(=O)c3ccco3)c2)ccc1OC [Compound 65]
100 to 1000 nM | Cc1ccccc1N1CCN(c2ccc(C(=O)NCCCN3CCCC3=O)cc2NC(=O)c2ncsc2C)CC1 [Compound 179]
100 to 1000 nM | Cc1ccccc1N1CCN(c2ccc(C(=O)NCCCn3ccnc3)cc2NC(=O)c2ccco2)CC1 [Compound 116]
1000 to 10000 nM | Cc1ccccc1N1CCN(c2ccc(C(=O)NCCCN3CCCC3=O)cc2NC(=O)c2cnc(Br)s2)CC1 [Compound 25]
100 to 1000 nM | COc1ccc(C(=O)Nc2cc(C(=O)NCCCN3CCCC3=O)ccc2N2CCN(c3ccccc3C)CC2)cc1 [Compound 42]
100 to 1000 nM | Cc1ccccc1N1CCN(c2ccc(C(=O)NCc3cccc(-c4ccnn4C)c3)cc2NC(=O)c2ccco2)CC1 [Compound 237]
> 10000 nM | Cc1ccccc1N1CCN(c2ccc(C(=O)NCCCN3CCCC3=O)cc2NC(=O)c2csc(C(C)C)c2)CC1 [Compound 213]
100 to 1000 nM | Cc1csc(-c2cccc(CNC(=O)c3ccc(N4CCN(c5ccccc5C)CC4)c(NC(=O)c4ccco4)c3)c2)n1 [Compound 262]
1000 to 10000 nM | Cc1ccc(C(=O)Nc2cc(C(=O)NC3CC3)ccc2N2CCN(c3ccccc3C)CC2)o1 [Compound 195, 5-Methyl-furan-2-carboxylic acid [5-cyclopropylcarbamoyl-2-(4-o-tolyl-piperazin-1-yl)-phenyl]amide]

Same assay, conditions: CHO FSHR cells + EC20 FSH; Table 2; read-out: Assay A EC50 of cyclic AMP production

EC50 | Structure (SMILES)
100 to 1000 nM | Cc1ccccc1N1CCN(c2ccc(C(=O)NCCCC(=O)O)cc2NC(=O)c2coc(C3CC3)n2)CC1 [Compound 351]
100 to 1000 nM | Cc1ccccc1N1CCN(c2ccc(C(=O)NCCCN3CCCC3=O)cc2NC(=O)c2cc(C3CC3)on2)CC1 [Compound 308]
100 to 1000 nM | CCN(C)Cc1cccc(CNC(=O)c2ccc(N3CCN(c4ccccc4C)CC3)c(NC(=O)c3coc(C4CC4)n3)c2)c1 [Compound 537]
100 to 1000 nM | Cc1ccccc1N1CCN(c2ccc(C(=O)NCCCN3CCC(O)C3)cc2NC(=O)c2coc(C3CC3)n2)CC1 (stereo not drawn) [Compound 461]
100 to 1000 nM | Cc1noc(CCCNC(=O)c2ccc(N3CCN(c4ccccc4C)CC3)c(NC(=O)c3coc(C4CC4)n3)c2)n1 [Compound 438]
100 to 1000 nM | COc1cccc(CNC(=O)c2ccc(N3CCN(c4ccccc4C)CC3)c(NC(=O)c3coc(C4CC4)n3)c2)c1 [Compound 276]
> 10000 nM | COc1cncc(N2CCN(c3ccc(C(=O)NCCCN4CCCC4=O)cc3NC(=O)c3coc(C4CC4)n3)CC2)c1 [Compound 599]
100 to 1000 nM | Cc1ccccc1C1=CCN(c2ccc(C(=O)NCCCN3CCCC3=O)cc2NC(=O)c2coc(C3CC3)n2)CC1 [Compound 414]
1000 to 10000 nM | Cc1ccccc1N1CCN(c2ccc(C(=O)NCCCN)cc2NC(=O)c2coc(C3CC3)n2)CC1 [Compound 417]
1000 to 10000 nM | CCN(C)Cc1cccc(CNC(=O)c2ccc(N3CCN(c4ccccc4C)CC3)c(NC(=O)c3ccc(C)o3)c2)c1 [Compound 547]
1000 to 10000 nM | Cc1ccccc1N1CCN(c2ccc(C(=O)NC3(c4cccc(C(=O)O)c4)CC3)cc2NC(=O)c2ccco2)CC1 [Compound 267]
< 100 nM | Cc1ccccc1N1CCN(c2ccc(C(=O)N[C@H]3CCC[C@H](O)[C@@H]3O)cc2NC(=O)c2coc(C3CC3)n2)CC1 [Compound 578]
100 to 1000 nM | Cc1nc(CCCNC(=O)c2ccc(N3CCN(c4ccccc4C)CC3)c(NC(=O)c3coc(C4CC4)n3)c2)no1 [Compound 500]
100 to 1000 nM | Cc1ccccc1N1CCN(c2ccc(C(=O)NCCCCN3CCOCC3)cc2NC(=O)c2coc(C3CC3)n2)CC1 [Compound 472]
< 100 nM | Cc1ccccc1N1CCN(c2ccc(C(=O)N[C@H]3CCC[C@@H](O)C3)cc2NC(=O)c2coc(C3CC3)n2)CC1 [Compound 575]
100 to 1000 nM | Cc1ccccc1N1CCN(c2ccc(C(=O)NCCCNC(=O)NC(C)C)cc2NC(=O)c2ccco2)CC1 [Compound 495]
100 to 1000 nM | CCNC(=O)NCCCNC(=O)c1ccc(N2CCN(c3ccccc3C)CC2)c(NC(=O)c2ccco2)c1 [Compound 492]
100 to 1000 nM | CCOc1cc(CCCNC(=O)c2ccc(N3CCN(c4ccccc4C)CC3)c(NC(=O)c3coc(C4CC4)n3)c2)ccc1OC [Compound 580]

EC50 | Structure (SMILES)
100 to 1000 nM | CCCCNC(=O)NCCCNC(=O)c1ccc(N2CCN(c3ccccc3C)CC2)c(NC(=O)c2coc(C3CC3)n2)c1 [Compound 427]
100 to 1000 nM | Cc1ccccc1N1CCN(c2ccc(C(=O)NCCCc3cccc(O)c3)cc2NC(=O)c2coc(C3CC3)n2)CC1 [Compound 570]
100 to 1000 nM | Cc1ccccc1N1CCN(c2ccc(C(=O)NCCCc3c[nH]cn3)cc2NC(=O)c2coc(C3CC3)n2)CC1 [Compound 274]
< 100 nM | Cc1ccccc1N1CCN(c2ccc(C(=O)N[C@H]3CCC[C@H](O)C3)cc2NC(=O)c2coc(C3CC3)n2)CC1 [Compound 576]
100 to 1000 nM | C=CCNC(=O)NCCCNC(=O)c1ccc(N2CCN(c3ccccc3C)CC2)c(NC(=O)c2coc(C3CC3)n2)c1 [Compound 426]
100 to 1000 nM | Cc1ccccc1N1CCN(c2ccc(C(=O)NOC[C@H](O)CO)cc2NC(=O)c2coc(C3CC3)n2)CC1 [Compound 542]
< 100 nM | Cc1ccccc1N1CCN(c2ccc(C(=O)N[C@@H]3C[C@H](CO)[C@@H](O)[C@H]3O)cc2NC(=O)c2coc(C3CC3)n2)CC1 [Compound 551]
100 to 1000 nM | Cc1ccc(C(=O)Nc2cc(C(=O)NCCCc3cn[nH]c3)ccc2N2CCN(c3ccccc3C)CC2)o1 [Compound 334]
100 to 1000 nM | Cc1ccccc1N1CCN(c2ccc(C(=O)NCCc3ccccc3C#N)cc2NC(=O)c2coc(C3CC3)n2)CC1 [Compound 397]
1000 to 10000 nM | Cc1ccccc1N1CCN(c2ccc(C(=O)NCCCN3CCCC3=O)cc2NC(=O)C2CC2(F)F)CC1 (stereo not drawn) [Compound 540]
100 to 1000 nM | Cc1ccccc1N1CCN(c2ccc(C(=O)NCCCc3ccccc3O)cc2NC(=O)c2ccco2)CC1 [Compound 372]
100 to 1000 nM | Cc1ccccc1N1CCN(c2ccc(C(=O)NCCCN3C(=O)OC[C@H]3CO)cc2NC(=O)c2coc(C3CC3)n2)CC1 [Compound 357]
100 to 1000 nM | Cc1ccccc1N1CCN(c2ccc(C(=O)NCCc3ccc(CN)cc3)cc2NC(=O)c2coc(C3CC3)n2)CC1 [Compound 499]
100 to 1000 nM | CC(=O)NCC(C)(C)CNC(=O)c1ccc(N2CCN(c3ccccc3C)CC2)c(NC(=O)c2coc(C3CC3)n2)c1 [Compound 355]
100 to 1000 nM | Cc1ccccc1N1CCN(c2ccc(C(=O)NCC(=O)NC3CCS(=O)(=O)C3)cc2NC(=O)c2ccco2)CC1 (stereo not drawn) [Compound 376]
1000 to 10000 nM | Cc1cncc(N2CCN(c3ccc(C(=O)NCCCN4CCCC4=O)cc3NC(=O)c3coc(C4CC4)n3)CC2)n1 [Compound 533]
1000 to 10000 nM | Cc1ccccc1N1CCN(c2ccc(C(=O)NCCc3cnc[nH]3)cc2NC(=O)C2CC2)CC1 [Compound 302]
100 to 1000 nM | CCc1ccccc1N1CCN(c2ccc(C(=O)NCCCN3CCCC3=O)cc2NC(=O)c2ccc(C)o2)CC1 [Compound 517]
